The test system of the first assay is A549. The assay is described as follows: In vitro rate of inhibition of A-549 tumor cell growth at 10E-5 mol/L. Format: functional, Homo sapiens. Conditions: at 10 µM.
In turn, `COC(=O)N1C(c2ccccc2)=NN=C(c2ccccc2)N1C(=O)OC` returned a Rate of inhibition of 0%.
For the molecule `CC1=NN(C(=O)Nc2ccccc2C)C(C)=NN1C(=O)Nc1ccccc1C`, the Rate of inhibition turned out to be 0%.
`CC1=NN(C(=O)Nc2cccc(C(F)(F)F)c2)C(C)=NN1C(=O)Nc1cccc(C(F)(F)F)c1` had a Rate of inhibition of 10.7%.
Still for that read-out and setting: to `CCCC1=NN(C(=O)OC)C(CCC)N=N1` (stereo not given) belongs 0%; to `COc1ccccc1NC(=O)N1N=C(C)N(C(=O)Nc2ccccc2OC)N=C1C`, 0%.
With `CC1=NNC(C)N=N1` (stereo not given), the Rate of inhibition is reported as 4.8%.
On the same count and under the same terms, the value for `CC1=NN(C(=O)Nc2ccccc2Cl)C(C)=NN1C(=O)Nc1ccccc1Cl` was 0%.

A further assay deals with P388. The assay is described as follows: In vitro rate of inhibition of P388 tumor cell growth at 10E-6 mol/L. Format: functional, Mus musculus. To be noted: at 1 µM.
The molecule `COC(=O)N1C(c2ccccc2)=NN=C(c2ccccc2)N1C(=O)OC` gave a Rate of inhibition of 11.6%.
Regarding `CC1=NN(C(=O)Nc2ccccc2C)C(C)=NN1C(=O)Nc1ccccc1C`, the Rate of inhibition is 1.6%.
Still for that read-out and setting: to `CC1=NN(C(=O)Nc2cccc(C(F)(F)F)c2)C(C)=NN1C(=O)Nc1cccc(C(F)(F)F)c1` belongs 9.5%.
Same read-out and setting: the value for `CCCC1=NN(C(=O)OC)C(CCC)N=N1` (stereo not given) was 4.5%; that for `COc1ccccc1NC(=O)N1N=C(C)N(C(=O)Nc2ccccc2OC)N=C1C` was 1.6%.
The molecule `CC1=NNC(C)N=N1` (stereo not given) came in with a Rate of inhibition of 9.2%.
The same measure, in the same setting: the value for `CC1=NN(C(=O)Nc2ccccc2Cl)C(C)=NN1C(=O)Nc1ccccc1Cl` was 1.6%.

The test system of another assay is A549. The experiment in a line: In vitro rate of inhibition of A-549 tumor cell growth at 10E-4 mol/L. Format: functional, Homo sapiens. To be noted: at 100 µM.
Consider `COC(=O)N1C(c2ccccc2)=NN=C(c2ccccc2)N1C(=O)OC`, for which the Rate of inhibition is 35.5%.
In turn, `CC1=NN(C(=O)Nc2ccccc2C)C(C)=NN1C(=O)Nc1ccccc1C` returned a Rate of inhibition of 80%.
As for `CC1=NN(C(=O)Nc2cccc(C(F)(F)F)c2)C(C)=NN1C(=O)Nc1cccc(C(F)(F)F)c1`, the Rate of inhibition was 39.3%.
Molecule `CCCC1=NN(C(=O)OC)C(CCC)N=N1` (stereo not given) came in with a Rate of inhibition of 59.6%.
The molecule `COc1ccccc1NC(=O)N1N=C(C)N(C(=O)Nc2ccccc2OC)N=C1C` yielded a Rate of inhibition of 80%.
Take `CC1=NNC(C)N=N1` (stereo not given): the Rate of inhibition worked out at 67.7%.
Regarding `CC1=NN(C(=O)Nc2ccccc2Cl)C(C)=NN1C(=O)Nc1ccccc1Cl`, the Rate of inhibition stood at 28.8%.

The next assay concerns A549. The experiment in a line: In vitro rate of inhibition of A-549 tumor cell growth at 10E-8 mol/L. The assay is classed as functional, Homo sapiens. To be noted: at 0.01 µM.
`COC(=O)N1C(c2ccccc2)=NN=C(c2ccccc2)N1C(=O)OC` had a Rate of inhibition of 0%.
On the same count and under the same terms, to `CC1=NN(C(=O)Nc2ccccc2C)C(C)=NN1C(=O)Nc1ccccc1C` belongs 0%; to `CC1=NN(C(=O)Nc2cccc(C(F)(F)F)c2)C(C)=NN1C(=O)Nc1cccc(C(F)(F)F)c1`, 16.1%; to `CCCC1=NN(C(=O)OC)C(CCC)N=N1` (stereo not given), 0%.
Same read-out and setting: the value for `COc1ccccc1NC(=O)N1N=C(C)N(C(=O)Nc2ccccc2OC)N=C1C` was 0%; that for `CC1=NNC(C)N=N1` (stereo not given) was 0%; that for `CC1=NN(C(=O)Nc2ccccc2Cl)C(C)=NN1C(=O)Nc1ccccc1Cl` was 0%.

A further assay concerns P388. The assay is described as follows: In vitro rate of inhibition of P388 tumor cell growth at 10E-5 mol/L. Conditions: at 10 µM. Format: functional, Mus musculus.
In turn, `COC(=O)N1C(c2ccccc2)=NN=C(c2ccccc2)N1C(=O)OC` displayed a Rate of inhibition of 14.6%.
Still for that read-out and setting: the value for `CC1=NN(C(=O)Nc2ccccc2C)C(C)=NN1C(=O)Nc1ccccc1C` was 18.8%; that for `CC1=NN(C(=O)Nc2cccc(C(F)(F)F)c2)C(C)=NN1C(=O)Nc1cccc(C(F)(F)F)c1` was 28.6%; that for `CCCC1=NN(C(=O)OC)C(CCC)N=N1` (stereo not given) was 17.3%.
For `COc1ccccc1NC(=O)N1N=C(C)N(C(=O)Nc2ccccc2OC)N=C1C`, the Rate of inhibition was 17.2%.
For the molecule `CC1=NNC(C)N=N1` (stereo not given), the Rate of inhibition was 19.7%.
The same measure, in the same setting: to `CC1=NN(C(=O)Nc2ccccc2Cl)C(C)=NN1C(=O)Nc1ccccc1Cl` belongs 41.3%.

For a further assay, the system named is P388. The assay is described as follows: In vitro rate of inhibition of P388 tumor cell growth at 10E-7 mol/L. Format: functional, Mus musculus. Conditions: at 0.1 µM.
Molecule `COC(=O)N1C(c2ccccc2)=NN=C(c2ccccc2)N1C(=O)OC` displayed a Rate of inhibition of 5.2%.
On the same count and under the same terms, to `CC1=NN(C(=O)Nc2ccccc2C)C(C)=NN1C(=O)Nc1ccccc1C` belongs 0%; to `CC1=NN(C(=O)Nc2cccc(C(F)(F)F)c2)C(C)=NN1C(=O)Nc1cccc(C(F)(F)F)c1`, 0%; to `CCCC1=NN(C(=O)OC)C(CCC)N=N1` (stereo not given), 1.7%.
The same measure, in the same setting: the value for `COc1ccccc1NC(=O)N1N=C(C)N(C(=O)Nc2ccccc2OC)N=C1C` was 0%; that for `CC1=NNC(C)N=N1` (stereo not given) was 15.9%; that for `CC1=NN(C(=O)Nc2ccccc2Cl)C(C)=NN1C(=O)Nc1ccccc1Cl` was 0%.

The test system of the next assay is P388. The assay is described as follows: In vitro rate of inhibition of P388 tumor cell growth at 10E-8 mol/L. Format: functional, Mus musculus. Conditions: at 0.01 µM.
In turn, `COC(=O)N1C(c2ccccc2)=NN=C(c2ccccc2)N1C(=O)OC` came in with a Rate of inhibition of 3.3%.
Still for that read-out and setting: to `CC1=NN(C(=O)Nc2ccccc2C)C(C)=NN1C(=O)Nc1ccccc1C` belongs 0%; to `CC1=NN(C(=O)Nc2cccc(C(F)(F)F)c2)C(C)=NN1C(=O)Nc1cccc(C(F)(F)F)c1`, 0%; to `CCCC1=NN(C(=O)OC)C(CCC)N=N1` (stereo not given), 3.3%.
For the molecule `COc1ccccc1NC(=O)N1N=C(C)N(C(=O)Nc2ccccc2OC)N=C1C`, the Rate of inhibition came out at 0%.
The same measure, in the same setting: the value for `CC1=NNC(C)N=N1` (stereo not given) was 0%.
On the same count and under the same terms, the value for `CC1=NN(C(=O)Nc2ccccc2Cl)C(C)=NN1C(=O)Nc1ccccc1Cl` was 0%.

The subject of a further assay is P388. The assay is described as follows: In vitro rate of inhibition of P388 tumor cell growth at 10E-4 mol/L. The assay is classed as functional, Mus musculus. To be noted: at 100 µM.
Take `COC(=O)N1C(c2ccccc2)=NN=C(c2ccccc2)N1C(=O)OC`: the Rate of inhibition is on record as 50.5%.
`CC1=NN(C(=O)Nc2ccccc2C)C(C)=NN1C(=O)Nc1ccccc1C` came in with a Rate of inhibition of 82.8%.
Same read-out and setting: to `CC1=NN(C(=O)Nc2cccc(C(F)(F)F)c2)C(C)=NN1C(=O)Nc1cccc(C(F)(F)F)c1` belongs 73%; to `CCCC1=NN(C(=O)OC)C(CCC)N=N1` (stereo not given), 90.4%; to `COc1ccccc1NC(=O)N1N=C(C)N(C(=O)Nc2ccccc2OC)N=C1C`, 59.4%.
Same read-out and setting: the value for `CC1=NNC(C)N=N1` (stereo not given) was 100%; that for `CC1=NN(C(=O)Nc2ccccc2Cl)C(C)=NN1C(=O)Nc1ccccc1Cl` was 90.5%.

The next assay has as its system A549. The experiment in a line: In vitro rate of inhibition of A-549 tumor cell growth at 10E-6 mol/L. The assay is classed as functional, Homo sapiens. Conditions: at 1 µM.
`COC(=O)N1C(c2ccccc2)=NN=C(c2ccccc2)N1C(=O)OC` returned a Rate of inhibition of 0%.
Same read-out and setting: to `CC1=NN(C(=O)Nc2ccccc2C)C(C)=NN1C(=O)Nc1ccccc1C` belongs 0%; to `CC1=NN(C(=O)Nc2cccc(C(F)(F)F)c2)C(C)=NN1C(=O)Nc1cccc(C(F)(F)F)c1`, 8.9%; to `CCCC1=NN(C(=O)OC)C(CCC)N=N1` (stereo not given), 0%.
In turn, `COc1ccccc1NC(=O)N1N=C(C)N(C(=O)Nc2ccccc2OC)N=C1C` came in with a Rate of inhibition of 0%.
Same read-out and setting: the value for `CC1=NNC(C)N=N1` (stereo not given) was 0%; that for `CC1=NN(C(=O)Nc2ccccc2Cl)C(C)=NN1C(=O)Nc1ccccc1Cl` was 0%.

A further assay deals with A549. The assay is described as follows: In vitro rate of inhibition of A-549 tumor cell growth at 10E-7 mol/L. The assay is classed as functional, Homo sapiens. To be noted: at 0.1 µM.
`COC(=O)N1C(c2ccccc2)=NN=C(c2ccccc2)N1C(=O)OC` displayed a Rate of inhibition of 0%.
Regarding `CC1=NN(C(=O)Nc2ccccc2C)C(C)=NN1C(=O)Nc1ccccc1C`, the Rate of inhibition is listed as 0%.
The same measure, in the same setting: the value for `CC1=NN(C(=O)Nc2cccc(C(F)(F)F)c2)C(C)=NN1C(=O)Nc1cccc(C(F)(F)F)c1` was 10.7%.
On the same count and under the same terms, to `CCCC1=NN(C(=O)OC)C(CCC)N=N1` (stereo not given) belongs 0%; to `COc1ccccc1NC(=O)N1N=C(C)N(C(=O)Nc2ccccc2OC)N=C1C`, 0%.
In turn, `CC1=NNC(C)N=N1` (stereo not given) had a Rate of inhibition of 5.5%.
Same read-out and setting: to `CC1=NN(C(=O)Nc2ccccc2Cl)C(C)=NN1C(=O)Nc1ccccc1Cl` belongs 0%.

(Values after ChEMBL document CHEMBL1147590, “Synthesis and antitumor activity of s-tetrazine derivatives” (Bioorg Med Chem Lett, 2004).)
